Test: Solubility of M4N in non-ionic surfactants (Table 21, visual inspection)
Assay type: physicochemical
Method: A 10 mL solution of M4N at a concentration of about 60 mg/mL in Tween® 20 was made as follows. About 10 mL of Tween® 20 were added to a glass beaker containing a stir bar. The beaker was placed on a magnetic plate and the stir bar was set to stir at medium speed. About 600 mg of M4N were slowly added to the Tween® 20 in the center of the beaker with the aid of a spatula to prevent M4N from sticking to the beaker wall. The M4N/Tween® 20 mixture was stirred for 2 hr or until all M4N had dissolved or was uniformly suspended without any clumps being present. The M4N/Tween® 20 mixture was heated at about 60° C. for about 30 min. (or longer if a larger volume of solution was desired, for example, 1 hr at 60° C. for 500 mL of the M4N/Tween® 20 mixture), or longer as need to ensure complete dissolution of M4N. […] The final M4N/Tween® 20 solution was stored at room temperature and was kept protected from light. If crystals were to form during storage, the M4N/Tween® 20 solution could be heated again at 60° C. for about 1 hr, with stirring, on a hot magnetic plate or until all M4N was dissolved back in solution.
This process may be scaled up or down to obtain the requisite volume or concentration of M4N and the heating temperature may be increased or decreased to achieve dissolution of M4N. Formulations containing M4N in other non-ionic surfactant, ionic surfactants or amphiphilic molecules may be similarly made, such as, for example, by substituting Tween® 20 in the process described above with Tween® 80, other solubilizing agents, and combinations thereof.

COc1ccc(C[C@@H](C)[C@@H](C)Cc2ccc(OC)c(OC)c2)cc1OC [Formulation M4N, meso-1,4-bis(3,4-dimethoxyphenyl)-2,3-dimethylbutane]
Stability at Room Temperature (50% Tween ® 20, 50% PEG 400, M4N 30 mg/mL): >3 days
Dissolution After Heating (50% Tween ® 20, 50% PEG 400, M4N 30 mg/mL, heating at 65° C.): Y at 65 °C
Stability at Room Temperature (50% Tween ® 20, 50% PEG 400, M4N 40 mg/mL): >3 days
Dissolution After Heating (50% Tween ® 20, 50% PEG 400, M4N 40 mg/mL, heating at 65° C.): Y at 65 °C
Stability at Room Temperature (50% Tween ® 20, 50% PEG 400, M4N 50 mg/mL): >3 days
Dissolution After Heating (50% Tween ® 20, 50% PEG 400, M4N 50 mg/mL, heating at 65° C.): Y at 65 °C
Stability at Room Temperature (50% Tween ® 20, 50% PEG 400, M4N 60 mg/mL): >3 days
Dissolution After Heating (50% Tween ® 20, 50% PEG 400, M4N 60 mg/mL, heating at 65° C.): Y at 65 °C
stable at room temperature (50% Tween® 20 and 50% PEG 400, after cooling): more than 3 days
Stability at Room Temperature (Tween ® 20 100% (v/v), M4N 1 mg/mL): >7 days
Stability at Room Temperature (Tween ® 20 100% (v/v), M4N 10 mg/mL): >7 days
Dissolution After Heating (Tween ® 20 100% (v/v), M4N 10 mg/mL, heating at 50° C.): Y at 50 °C
Stability at Room Temperature (Tween ® 20 100% (v/v), M4N 20 mg/mL): >7 days
Dissolution After Heating (Tween ® 20 100% (v/v), M4N 20 mg/mL, heating at 50° C.): Y at 50 °C
Stability at Room Temperature (Tween ® 20 100% (v/v), M4N 40 mg/mL): <3 days
Dissolution After Heating (Tween ® 20 100% (v/v), M4N 40 mg/mL, heating at 50° C.): Y at 50 °C
Stability at Room Temperature (Tween ® 20 100% (v/v), M4N 60 mg/mL): <3 days
Dissolution After Heating (Tween ® 20 100% (v/v), M4N 60 mg/mL, heating at 50° C.): Y at 50 °C
Dissolution After Heating (Tween ® 20 100% (v/v), M4N 80 mg/mL, heating at 50° C.): Y at 50 °C
Dissolution After Heating (Tween ® 20 100% (v/v), M4N 100 mg/mL, heating at 50° C.): Y at 50 °C
Stability at Room Temperature (Tween ® 80 100% (v/v), M4N 1 mg/mL): >3 days
Stability at Room Temperature (Tween ® 80 100% (v/v), M4N 10 mg/mL): >3 days
Dissolution After Heating (Tween ® 80 100% (v/v), M4N 10 mg/mL, heating at 50° C.): Y at 50 °C
Stability at Room Temperature (Tween ® 80 100% (v/v), M4N 50 mg/mL): <1 days
Dissolution After Heating (Tween ® 80 100% (v/v), M4N 50 mg/mL, heating at 50° C.): Y at 50 °C
stable at room temperature (Tween® 20, M4N 1 mg/mL): more than 7 days
stable at room temperature (Tween® 20, M4N 10 mg/mL and 20 mg/mL): more than 7 days
stable at room temperature (Tween® 20, M4N 40 mg/mL and 80 mg/mL): less than 3 days
solution upon cooling (Tween® 20, M4N 80 mg/mL and 100 mg/mL): becoming insoluble upon cooling
concentrations at which M4N remained in solution after cooling (Tween® 20, dissolved at 50° C.): up to 60 mg/mL
stable at room temperature (Tween® 80, M4N 1 mg/mL): more than 3 days
stable at room temperature (Tween® 80, M4N 10 mg/mL): more than 3 days
stable at room temperature (Tween® 80, M4N 50 mg/mL): less than 1 day
concentrations at which M4N remained in solution after cooling (Tween® 80, dissolved at 50° C.): up to 50 mg/mL

From patent publication US20080096967A1, “Formulations for Injection of Catecholic Butanes, Including Ndga Compounds, Into Animals” (priority 2005, published 2008)
